Where two headings read alike, the source gives them in different places.
Key:
[1] = rat, in vivo, pH 7.4
[2] = rat
[3] = for Brain Kin: calculated at brain blood flow […] and rat serum fu; for Extraction (unbound) / Brain vascular extraction (total): calculated at brain blood flow […]; for Extraction (unbound): free drug; for Brain vascular extraction (total): with rat serum fu
[4] = Neutral fraction at pH 7.4 calculated from pKa; type: physicochemical; conditions: neutral fraction at perfusion fluid pH 7.40, calculated from pKa
[5] = rat in vivo measurements; cited from earlier work
[6] = ref Hansch et al. [123], Avdeef [46] or other sources, cited from earlier work; for Log Poct: octanol partition coefficient
[7] = rat in vivo measurements; cited from earlier work; remark: listed apart in the source
[8] = In situ rat brain perfusion (brain uptake Kin, extraction E, BBB PS)

SMILES	Log Pc [1]	Log PoS [1]	Pc [1]	PcS [1]	PoS [1]	Log Po [1]	Po [1]	half-life ([2]; brain)	Brain Kin [3]	Extraction (unbound) [3]	Brain vascular extraction (total) [3]	fn (%) [4]	fu,.p [5]	Log Poct [6]	Log Doct pH=7.4 [6]	Brain Vu,br [7]	further results
Fc1ccc([C@@H]2CCNC[C@H]2COc2ccc3c(c2)OCO3)cc1 [Paroxetine]	−2.91	1.59	1230 ×10⁻⁶ cm/s	0.12 mL/s/g	39.0 mL/s/g	−0.41	0.39 cm/s	83 min	0.00164 mL/s/g	99.4%	7.4%	0.32%	0.015	3.50	1.00	852.0 mL/g	BBB PcS [1]: 0.12 ± 0.02 mL/s/g
CCCC(CCC)C(=O)O [Valproic acid]	−4.04	0.46	91.9 ×10⁻⁶ cm/s	0.0092 mL/s/g	2.92 mL/s/g	−1.54	0.0292 cm/s	1.86 min	0.0016 mL/s/g	31.8%	6.7%	0.16%	0.18	2.71	0.21	1.43 mL/g	
CC(=O)[C@H]1CC[C@H]2[C@@H]3CCC4=CC(=O)CC[C@]4(C)[C@H]3CC[C@]12C [Progesterone]								0.42 min				100%	0.03	3.48	3.48	28.6 mL/g	
Cn1nnc2c(C(N)=O)ncn2c1=O [Temozolamide]	−4.79	−2.79	16.3 ×10⁻⁶ cm/s	0.0016 mL/s/g	0.00163 mL/s/g	−4.79	1.63e-05 cm/s	7.65 min	0.00464 mL/s/g	4.3%	5.3%	100%	0.80	−1.04	−1.04	1.05 mL/g	
COc1ccc2c(c1)c(CC(=O)O)c(C)n2C(=O)c1ccc(Cl)cc1 [Indomethacin]	−4.12		76.6 ×10⁻⁶ cm/s	0.0077 mL/s/g		−0.84	0.15 cm/s	19.6 min	4.37e-05 mL/s/g	27.3%	0.18%	0.05%	5.7E−03	3.51	0.68	13.0 mL/g	
COC(=O)[C@H]1[C@H]2C[C@@H]3c4[nH]c5cc(OC)ccc5c4CCN3C[C@H]2C[C@@H](OC(=O)c2cc(OC)c(OC)c(OC)c2)[C@@H]1OC [Reserpine]	−3.05	−0.97	898 ×10⁻⁶ cm/s	0.09 mL/s/g	0.11 mL/s/g	−2.97	0.00108 cm/s	0.77 min	0.00749 mL/s/g	97.6%	31.2%	83.37%	0.10	1.54	1.46	5 mL/g	
OC[C@H]1O[C@@](CO)(O[C@H]2O[C@H](CO)[C@@H](O)[C@H](O)[C@H]2O)[C@@H](O)[C@@H]1O [Sucrose]								120 min		2.00E-04%	2.00E-04%	100%	1.00	−3.57	−3.57	0.05 mL/g	
OCCCCCCO [1,6-Hexanediol]	−3.42	−1.42	379 ×10⁻⁶ cm/s	0.038 mL/s/g	0.0379 mL/s/g	−3.42	0.000379 cm/s	0.72 min	0.0182 mL/s/g	96.3%	75.9%	100%	0.9	0.83	0.83	1.27 mL/g	
O=C1Nc2ccc(Cl)cc2C(c2ccccc2Cl)=NC1O (stereo not shown) [Lorazepam]												100%	0.16			15.87 mL/g	half-life [2]: 1.39 min; Maximal flow—90% extraction, PcS/2.3 ([3]; pH 7.4): 0.13 mL/s/g; Log Pc ([8]; Pc in cm/s): −2.52; Log Po ([8]; Po in cm/s): −2.52; Log PoS ([8]; PoS in mL/s/g): −0.52; Pc ([8]; S assumed 100 cm^2/g): 3000 ×10⁻⁶ cm/s; Po ([8]; S assumed 100 cm^2/g): 3000 ×10⁻⁶ cm/s; PcS ([8]; cerebral cortex, flow 0.1–[…], S = physiological saline, AB = artificial blood): 0.30 mL/s/g; PoS ([8]; intrinsic PS of neutral solute, PoS = PcS/fn, flow 0.1–[…]): 0.30 mL/s/g
OC[C@@H](O)[C@@H](O)[C@H](O)[C@H](O)CO [Mannitol]	−7.06	−5.06	0.088 ×10⁻⁶ cm/s	8.8e-06 mL/s/g	8.8e-06 mL/s/g	−7.06	8.8e-08 cm/s	109 min	8.8e-06 mL/s/g	3.67E-04%	3.67E-04%	100%	1.00	−3.10	−3.10	0.08 mL/g	
Cc1c(N(C)C)c(=O)n(-c2ccccc2)n1C [Aminopyrine]								0.76 min	0.0201 mL/s/g	89.8%	83.9%	99.0%	0.80			1.67 mL/g	
OCC(O)CO [Glycerol]	−6.08	−4.08	0.829 ×10⁻⁶ cm/s	8.3e-05 mL/s/g	8.29e-05 mL/s/g	−6.08	8.29e-07 cm/s	145 min	1.7e-06 mL/s/g	0.34%	0.34%	100%	1.00	−1.76	−1.76	1.04 mL/g	
CC(C)NCC(O)COc1cccc2ccccc12 (stereo not shown) [Propranolol]								3.93 min	0.00806 mL/s/g	98.3%	30.5%	0.74%	0.09			27.8 mL/g	
CNCCC(Oc1ccc(C(F)(F)F)cc1)c1ccccc1 (stereo not shown) [Fluoxetine]								15.8 min	0.0105 mL/s/g	100%	21.3%	0.27%	0.028	4.50		250 mL/g	

Source: PMC11650849, “Brain endothelial permeability, transport, and flow assessed over 10 orders of magnitude using the in situ brain perfusion technique” (Fluids and Barriers of the CNS, 2024)
